The nature of this series: gradient 5% acetonitrile 3 min, to 50% in 2 min, to 85% in 15 min, held 3 min, 100 µL/min. Particulars: column: Zorbax Extend-C18 2.1 x 50 mm; eluents: water / acetonitrile, 0.1% formic acid. The gist of the method: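 The system's dead and dwell volumes were 40 μL and 900 μL, with a Zorbax Extend-C18 column (2.1 × 50 mm, 1.8 μm) run at 100 μL/min in water and acetonitrile containing 0.1% formic acid each. Pure standards were analyzed in mixtures of ~100 molecules by HPLC–quadrupole time-of-flight mass spectrometry in positive and negative ionization mode. Retention time was assigned from computationally picked, manually inspected adduct peaks.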
On to `Cn1nc(CN2CCCC2)c2c1CCN(S(=O)(=O)c1ccc(C(F)(F)F)cc1)C2`, for which the RP-LC retention time stood at 679 s.
`CCOC(=O)COc1cc(-c2ccccc2)nc2ccc(NC(=O)COC)cc12` registered an RP-LC retention time of 695 s.
`CCOc1ccc(CCNC(=O)c2cc(S(=O)(=O)N3CCCCC3)c(C)n2C)cc1OCC` had an RP-LC retention time of 1010 s.
As for `O=C(NC1CC1)c1ccc(-c2cccs2)nc1`, the figure is 716 s; as for `CCS(=O)(=O)c1nc2ccc(NS(=O)(=O)c3c(C)cc(C)cc3C)cc2s1`, 958 s.
As for `CC(=O)Nc1ccc(NC(=O)C(=O)NCCN2CCN(c3ccc(Cl)cc3)CC2)cc1`, the figure is 588 s; as for `COc1cccc(CNC(=O)N2CCN(C3=CC4=NC(C)CN4C=N3)CC2)c1` (centres undefined), 649 s; as for `COC(=O)c1[nH]c(C)c(CN(C)C(=O)c2ccc(Br)cc2)c1C`, 876 s.
Turning to `O=C(C1CCCN(S(=O)(=O)N2CCCCC2)C1)N1CCN(Cc2ccc3c(c2)OCO3)CC1` (centres undefined), the RP-LC retention time was found to be 679 s.
As for `O=C(NC1CC1)[C@@H]1C[C@H](Oc2cccnc2)CN1C(=O)c1ccc2ncccc2c1`, the RP-LC retention time is 528 s.
As for `COCCNc1oc(-c2ccc([N+](=O)[O-])cc2)nc1C#N`, the figure is 766 s; as for `CC(=O)Nc1onc(C)c1-c1ccc(C)c(S(=O)(=O)N2CCN(c3ncccn3)CC2)c1`, 763 s.
With `CC1(C)CC2(CCO1)OC(=O)CC2C(=O)Nc1ccccc1Cl` (centres undefined), the RP-LC retention time was found to be 753 s.
On to `CCOc1nccnc1NC1CCN(C(=O)c2cccs2)CC1`, for which the RP-LC retention time worked out at 921 s.
As for `COc1ccccc1NC(=O)c1sc(-c2cn(C)c3ncccc23)nc1C`, the figure is 1060 s; as for `COCC1CN(Cc2ccc(OC(F)(F)F)cc2)CC12CCNCC2` (centres undefined), 579 s; as for `CCc1ccc(N2C(=O)C3N=NN(Cc4nc(-c5ccc(Br)cc5)no4)C3C2=O)cc1` (centres undefined), 1130 s.
Compound `COc1cc(CN2CCC3(CCC3O)CC2)ccc1OC(C)C` (centres undefined) showed an RP-LC retention time of 614 s.
On to `CCc1noc2nc(CCC(=O)NCCCN3CCN(CC)CC3)nc(N3CCCCC3)c12`, for which the RP-LC retention time is 595 s.
As for `O=c1ccc(S(=O)(=O)N2CCCCCC2)cn1Cc1cccc(F)c1`, the figure is 944 s.
The compound `O=C(CC1CCCC1)N1CCN(c2ncccc2-c2nnc(C3CC3)o2)CC1` returned an RP-LC retention time of 828 s.
For `COc1ccccc1CNC(=O)c1sc(-c2cn(C(C)C)c3ncccc23)nc1C`, the RP-LC retention time stood at 1030 s.
The figure for `COc1cccc(-c2noc(C3CCCN3C(=O)Nc3ccccc3C)n2)c1` (centres undefined) is 877 s; for `COc1ccc(Cn2c(=O)c3sccc3n(Cc3nc(-c4ccc(Cl)c(F)c4)no3)c2=O)cc1` it is 1190 s.
As for `CC(=O)N1CCc2cc(N3CC(C(=O)NCc4cc(C)ccc4C)CC3=O)ccc21` (centres undefined), the figure is 742 s; as for `O=c1n(Cc2ccccc2F)nc2ccc(S(=O)(=O)N3CCc4ccccc4C3)cn12`, 984 s; as for `COc1ccc(C(=O)N2CCCC(COc3ccc(C(=O)NC(C)C)cc3)C2)cc1F` (centres undefined), 846 s.
As for `CCC(=O)N1CCN(c2nc3c(s2)CC(C(=O)NCc2cc(F)ccc2F)CC3)CC1` (centres undefined), the figure is 601 s; as for `O=C(c1cc(-c2ccccn2)n[nH]1)N1CCN(C(=O)C2CCC2)CC1`, 612 s; as for `O=C(Nc1ccc(F)c(F)c1)C1CCN(S(=O)(=O)c2ccc(-c3noc(C4CC4)n3)cc2)CC1`, 1050 s.
The compound `CCOc1ccc(NC(=O)Cn2nc3c(Oc4ccccc4C)nccn3c2=O)cc1` had an RP-LC retention time of 870 s.
Compound `CCc1ccc(Oc2cc(N3CCC(C(=O)NCCCOC(C)C)CC3)ncn2)cc1` gave an RP-LC retention time of 903 s.
The figure for `O=C(Cc1ccsc1)Nc1cnc(-c2ccccc2)nc1` is 890 s.
As for `O=C([C@@H]1C[C@H](F)CN1C(=O)c1ccccc1F)N1CCCCC1`, the figure is 677 s.
The figure for `CCc1nc2cc(-c3noc(/C=C/c4ccc(OC)c(OC)c4)n3)ccc2o1` is 1140 s.
`Cc1cc(C)cc(N2C(=O)N(CC(=O)N3CCOc4ccc(C)cc43)C3CS(=O)(=O)CC32)c1` (centres undefined) returned an RP-LC retention time of 962 s.
With `Cc1cccc(NC(=O)c2cn(CC(=O)NC3CCCC3)c3nc(C)ccc3c2=O)c1`, the RP-LC retention time was determined as 996 s.
As to `CCc1sc(NC(=O)c2cc(OC)cc(OC)c2)nc1-c1ccccc1`, the RP-LC retention time was found to be 1200 s.
As for `C=CCn1c(C)c(CC(=O)NC2CCCC2)c(=O)n2nc(-c3ccccc3)nc12`, the figure is 684 s; as for `O=C(N[C@H]1C[C@@H]2C[C@H]1N(C(=O)COc1cccc(Cl)c1)C2)c1cccnc1`, 656 s.
As for `O=C(Cn1ncc2c(c1=O)N(C1CC1)C(=O)CS2)NCc1ccc2c(c1)OCO2`, the figure is 682 s; as for `Cc1ccccc1CNC(=O)C1(C)CCCN(C(=O)NCC(C)C)C1` (centres undefined), 820 s; as for `COc1ccc(C)cc1NC(=O)c1nc(C2CCC2)oc1C`, 1290 s.
As for `Cc1cc(F)ccc1NC(=O)C1CCCN1S(C)(=O)=O` (centres undefined), the figure is 701 s.
Turning to `CC(=O)Oc1cccc(C2C3=C(CC(C)(C)CC3=O)Nc3ccccc3N2C(C)=O)c1` (centres undefined), the RP-LC retention time worked out at 735 s.
Consider `CCN1CCN(C(=O)c2nc(-c3ccnc(N4CCCCC4)c3)no2)CC1`, for which the RP-LC retention time came to 568 s.
On to `O=C(NCC1CCCO1)N1CCCn2nc(-c3ccncc3)cc2C1` (centres undefined), for which the RP-LC retention time came to 551 s.
The figure for `CN(Cc1ccccc1)C(=O)c1ccc2c(c1)CCCN2S(C)(=O)=O` is 841 s; for `O=C(CSc1nc(-c2ccccc2)ns1)Nc1nc2ccccc2s1` it is 1000 s; for `COc1ccc(Cl)cc1NC(=O)CN1C(=O)CC(C)Sc2ccccc21` (centres undefined) it is 926 s.
The figure for `Cc1ccc(C2=NC3(CCN(C(=O)c4ccsc4)CC3)ON2)cc1` is 737 s.
In turn, `CN(C)c1cccc(C(=O)NCC2CCN(C(=O)Oc3ccccc3)CC2)c1` had an RP-LC retention time of 723 s.
`COCCOCC(=O)NCC1CCCCC(=O)N1` (centres undefined) had an RP-LC retention time of 576 s.
The figure for `Cc1cccc(CNC(=O)c2c(C)sc3ccn(C)c(=O)c23)c1` is 787 s; for `N#Cc1ccc(C(=O)N2CCC(CCOCC3CC3)CC2)cc1` it is 862 s.
The figure for `COC(=O)C1=CN(c2ccc(Cl)cc2)c2ccccc2S1(=O)=O` is 864 s; for `O=C1c2ccccc2C(=O)N1CC(=O)N(Cc1ccccc1)c1cccc([N+](=O)[O-])c1` it is 916 s.
The figure for `CN1C(=O)c2cc(C(=O)NCCc3ccccc3Cl)nn2CC1(C)C(=O)NCc1ccccc1` (centres undefined) is 816 s; for `Cc1ccc(CNC(=O)NC2CCN(C(=O)N3C[C@H]4C[C@H](C3)[C@H]3CCCC(=O)N3C4)CC2)cc1` it is 681 s.

Values taken from the METLIN SMRT retention time set (Domingo-Almenara et al. 2019).
